{
  "source": "patent US9288990B2",
  "about": "“Synergistic weed control from applications of penoxsulam and pethoxamid” (Dow AgroSciences, LLC, priority 2013, dated 2016)",
  "format_in_all_cases": "in vivo",
  "key": {"[1]": {"tested_on": "Mercurialis annua (annual mercury, MERAN)", "experiment": "Pre-emergence field trial, weed control of MERAN", "settings": "29 days", "experimental": "(§1) Field trials were conducted with applications made in the area of naturally occurring weed populations in Germany, France, Hungary and Italy. The soil was treated prior to the emergence of target plants. All treatments were applied using a randomized complete block trial design, plots 3 meters (m) wide by 8-10 m long, with 3 replications per treatment.\n(§2) Treatments consisted of penoxsulam and pethoxamid, applied alone and in combination. Spray solutions were prepared using an appropriate amount of dilution to treat the area of the plots based on use rates and water volumes necessary based on a per hectacre basis. Spray solutions were prepared and applied with the specified active ingredients in single and two-way combinations to be able to perform Colby synergy calculations. Formulated products were applied to the soil with a backpack or bicycle compressed air sprayer equipped with flat fas nozzles calibrated to deliver from 200 to 300 L/ha at a normal spray height above the solid, at spray pressures ranging from 210 to 350 kilopascals (kPa).\n(§3) The treated plots and control plots were rated blind at various intervals after application. […]\n(§4) Colby's equation was used to determine the herbicidal effects expected from the mixtures, as described above. The results were measured at the evaluation intervals provided in Table 1 after the first application of the compositions. […]"}, "[2]": {"tested_on": "Ambrosia artemisiifolia L. (common ragweed, AMBEL)", "experiment": "Pre-emergence field trial, weed control of AMBEL", "experimental": "as §1, §2\n(§5) The treated plots and control plots were rated blind at various intervals after application. Ratings were based on a scale of 0-100%, as discussed above, wherein 0% indicates no control of the undesired vegetation and 100% indicates complete control of the undesired vegetation.\n(§6) Colby's equation was used to determine the herbicidal effects expected from the mixtures, as described above. The results were measured at the evaluation intervals provided in Table 1 after the first application of the compositions. […] The herbicide tank mix combinations tested, application rates and ratios employed, plant species tested, and results are given below."}, "[3]": {"tested_on": "Echinochloa crus-galli (L.) P. Beauv. (barnyardgrass, ECHCG)", "experiment": "Pre-emergence field trial, weed control of ECHCG", "experimental": "as §1, §2, §5, §6"}, "[4]": {"tested_on": "Kickxia elantine (canker root, KICEL)", "experiment": "Pre-emergence field trial, weed control of KICEL", "experimental": "as §1, §2, §3, §4"}, "[5]": {"tested_on": "Polygonum persicaria L. (ladysthumb, POLPE)", "experiment": "Pre-emergence field trial, weed control of POLPE", "settings": "54 days", "experimental": "as §1, §2, §3, §4"}, "[6]": {"tested_on": "Xanthium strumarium L. (common cocklebur, XANST)", "experiment": "Pre-emergence field trial, weed control of XANST", "experimental": "as §1, §2, §5, §6"}, "[7]": {"tested_on": "Chenopodium album L. (common lambsquarters, CHEAL)", "experiment": "Pre-emergence field trial, weed control of CHEAL", "experimental": "as §1, §2, §5, §6"}, "[8]": {"settings": "14 days, pethoxamid 1200 g ai/ha alone"}, "[9]": {"settings": "28 days, pethoxamid 1200 g ai/ha alone"}, "[10]": {"settings": "58 days, pethoxamid 1200 g ai/ha alone"}, "[11]": {"settings": "14 days, penoxsulam 5 g ai/ha alone"}, "[12]": {"settings": "28 days, penoxsulam 5 g ai/ha alone"}, "[13]": {"settings": "28 days, penoxsulam 10 g ai/ha alone"}, "[14]": {"settings": "58 days, penoxsulam 5 g ai/ha alone"}, "[15]": {"settings": "58 days, penoxsulam 10 g ai/ha alone"}},
  "data": [
    {"smiles": "CCOCCN(C(=O)CCl)C(=C(C)C)c1ccccc1", "note": "[Pethoxamid, 2-chloro-N-(ethoxyethyl)-N-(2-methyl-1-phenylprop-1-enyl)acetamide]", "values": [
      {"measurement": "Mean % weed control", "setting": "[1]; pethoxamid 1200 g ai/ha alone", "result": 0, "unit": "%"},
      {"measurement": "Mean % weed control", "setting": "[2]; [8]", "result": 33.33, "unit": "%"},
      {"measurement": "Mean % weed control", "setting": "[2]; [9]", "result": 13.33, "unit": "%"},
      {"measurement": "Mean % weed control", "setting": "[2]; [10]", "result": 13.33, "unit": "%"},
      {"measurement": "Mean % weed control", "setting": "[3]; [9]", "result": 33.33, "unit": "%"},
      {"measurement": "Mean % weed control", "setting": "[3]; [10]", "result": 16.67, "unit": "%"},
      {"measurement": "Mean % weed control", "setting": "[4]; KICEL, 29 days, pethoxamid 1200 g ai/ha alone", "result": 0, "unit": "%"},
      {"measurement": "Mean % weed control", "setting": "[5]; pethoxamid 1200 g ai/ha alone", "result": 72.33, "unit": "%"},
      {"measurement": "Mean % weed control", "setting": "[6]; [9]", "result": 3.33, "unit": "%"},
      {"measurement": "Mean % weed control", "setting": "[6]; [10]", "result": 0, "unit": "%"},
      {"measurement": "Mean % weed control", "setting": "[7]; [8]", "result": 26.67, "unit": "%"},
      {"measurement": "Mean % weed control", "setting": "[7]; [9]", "result": 6.67, "unit": "%"},
      {"measurement": "Mean % weed control", "setting": "[7]; 29 days, pethoxamid 1200 g ai/ha alone", "result": 0, "unit": "%"},
      {"measurement": "Mean % weed control", "setting": "[7]; 46 days, pethoxamid 1200 g ai/ha alone", "result": 16.67, "unit": "%"}
    ]},
    {"smiles": "COc1cnc(OC)n2nc(NS(=O)(=O)c3c(OCC(F)F)cccc3C(F)(F)F)nc12", "note": "[Penoxsulam]", "values": [
      {"measurement": "Mean % weed control", "setting": "[1]; penoxsulam 10 g ai/ha alone", "result": 36.67, "unit": "%"},
      {"measurement": "Mean % weed control", "setting": "[2]; [11]", "result": 50, "unit": "%"},
      {"measurement": "Mean % weed control", "setting": "[2]; 14 days, penoxsulam 10 g ai/ha alone", "result": 78.33, "unit": "%"},
      {"measurement": "Mean % weed control", "setting": "[2]; [12]", "result": 33.33, "unit": "%"},
      {"measurement": "Mean % weed control", "setting": "[2]; [13]", "result": 66.67, "unit": "%"},
      {"measurement": "Mean % weed control", "setting": "[2]; [14]", "result": 33.33, "unit": "%"},
      {"measurement": "Mean % weed control", "setting": "[2]; [15]", "result": 66.67, "unit": "%"},
      {"measurement": "Mean % weed control", "setting": "[3]; [13]", "result": 76.67, "unit": "%"},
      {"measurement": "Mean % weed control", "setting": "[3]; [14]", "result": 20, "unit": "%"},
      {"measurement": "Mean % weed control", "setting": "[3]; [15]", "result": 63.33, "unit": "%"},
      {"measurement": "Mean % weed control", "setting": "[4]; 696 h", "result": 20, "unit": "%"},
      {"measurement": "Mean % weed control", "setting": "[5]; penoxsulam 5 g ai/ha alone", "result": 90, "unit": "%"},
      {"measurement": "Mean % weed control", "setting": "[6]; [12]", "result": 20, "unit": "%"},
      {"measurement": "Mean % weed control", "setting": "[6]; [14]", "result": 10, "unit": "%"},
      {"measurement": "Mean % weed control", "setting": "[7]; [11]", "result": 26.67, "unit": "%"},
      {"measurement": "Mean % weed control", "setting": "[7]; [12]", "result": 13.33, "unit": "%"},
      {"measurement": "Mean % weed control", "setting": "[7]; 29 days, penoxsulam 5 g ai/ha alone", "result": 95, "unit": "%"},
      {"measurement": "Mean % weed control", "setting": "[7]; 46 days, penoxsulam 5 g ai/ha alone", "result": 43.33, "unit": "%"}
    ]}
  ]
}
